Laboratory results from patent US20260048138A1, “NOVEL PI3K AND/OR PIKK INHIBITORS, ANTIBODY-DRUG CONJUGATES COMPRISING THE SAME AND USES THEREOF” (HUTCHMED LIMITED, priority 2024, published 2026).

Assays:
MDA-MB-453 = assay: Inhibition of cell proliferation by payloads in vitro (CCK-8); assay type: cell-based; details: Homo sapiens, MDA-MB-453, 144 h, read-out: IC50, nM MDA-MB-453; payloads, proliferation, 6 days, CCK-8
Procedure: (§1) The cells were added to a 96-well plate at 1.0×10^3 cells/well and 100 μL/well and incubated in a cell culture incubator at 37° C. and 5% CO2. The test compounds were diluted with a DMEM medium containing 2% DMSO (Sigma-Aldrich, Cat. No. 34869) in a 4-fold gradient to the corresponding concentrations. […] The final concentration of DMSO was 0.2%. The cells were incubated in a cell culture incubator at 37° C. and 5% CO2 for 6 days.
(§2) After 6 days of culture, 10 μL/well of Cell Counting Kit-8 reagent (CCK-8, Dojindo, Cat. No. CK04) was added to the wells and mixed well with shaking. The cells were incubated in a cell culture incubator at 37° C. and 5% CO2 for 0.50-4.0 hours.
(§3) The OD450 optical density value was read on an EnVision™ multi-function microplate reader (PerkinElmer), and the inhibition rates (%) of the compounds were calculated. Then, the half-maximal inhibitory concentration (IC50) values were obtained using the XLfit5 software (ID Business Solutions Limited). All samples were tested in duplicate wells.
(§4) [formula] • wherein • OD450test compound represents the optical density value in the wells of the compounds to be tested; • OD450cell represents the optical density value in the wells of cell controls; • OD450background represents the optical density value in the wells of cell-free controls.

MDA-MB-468 = assay: as above; assay type: cell-based; details: Homo sapiens, MDA-MB-468, 144 h; payloads, proliferation, 6 days, CCK-8; read-out: IC50, nM MDA-MB-468
Procedure: as §1, §2, §3, §4

[1] = biological target: T1, Human PIK3CA/PIK3R1 (p110α/p85α) recombinant protein (Homo sapiens, UniProt P42336); assay: PIK3CA/PIK3R1 (p110α/p85α) kinase activity, Transcreener ADP2 FP; assay type: biochemical; details: 10 μM ATP, 30 μM PIP2:PS; read-out: PIK3CA/PIK3R1 (p110α/p85α) (Enzyme, IC50)
T1 construct: His tag; purchased Invitrogen PV4788
Procedure: The complex formed by the binding of the ADP Alexa633 Tracer to the ADP2 antibody therein could produce fluorescence polarization. […] Assay is carried out according to the instruction of the kit. […] After that, 10 μl PIK3CA/PIK3R1 (p110α/p85α) enzyme solution was added to each well; then, 10 μl of a mixed solution of ATP and PIP2:PS lipid kinase substrate was added to each well, and the mixture was centrifuged at 1000 rpm for 60 seconds; Then, the 96-well plate was placed in a constant temperature incubator protected from light and incubated at room temperature for 1 hour. […] After the enzymatic reaction was completed, 25 μl of ADP detection mixture was added to the positive control group, 25 μl of ADP detection mixture without ADP^2 antibody was added to the negative control group, and 25 μl of ADP detection mixture without tracer-label ADP and ADP^2 antibody was added to the blank control group. Then centrifugation was performed at 1000 rpm for 60 seconds. The 96-well plate was placed in a constant temperature incubator protected from light, and incubated at room temperature for 1.5 hours. […] [formula] The inhibition rate was calculated using the formula as below: [formula]

[2] = biological target: T2, Human FRAP1 (mTOR) recombinant protein (Homo sapiens, UniProt P42345); assay: FRAP1 (mTOR) kinase activity, LanthaScreen TR-FRET; assay type: biochemical; details: 10 μM ATP, 0.4 μM GFP-4EBP1; read-out: FRAP1 (mTOR) (Enzyme, IC50)
T2 construct: GST; purchased Invitrogen PV4753
T2 sequence (P42345 1360-2549 limits assumed): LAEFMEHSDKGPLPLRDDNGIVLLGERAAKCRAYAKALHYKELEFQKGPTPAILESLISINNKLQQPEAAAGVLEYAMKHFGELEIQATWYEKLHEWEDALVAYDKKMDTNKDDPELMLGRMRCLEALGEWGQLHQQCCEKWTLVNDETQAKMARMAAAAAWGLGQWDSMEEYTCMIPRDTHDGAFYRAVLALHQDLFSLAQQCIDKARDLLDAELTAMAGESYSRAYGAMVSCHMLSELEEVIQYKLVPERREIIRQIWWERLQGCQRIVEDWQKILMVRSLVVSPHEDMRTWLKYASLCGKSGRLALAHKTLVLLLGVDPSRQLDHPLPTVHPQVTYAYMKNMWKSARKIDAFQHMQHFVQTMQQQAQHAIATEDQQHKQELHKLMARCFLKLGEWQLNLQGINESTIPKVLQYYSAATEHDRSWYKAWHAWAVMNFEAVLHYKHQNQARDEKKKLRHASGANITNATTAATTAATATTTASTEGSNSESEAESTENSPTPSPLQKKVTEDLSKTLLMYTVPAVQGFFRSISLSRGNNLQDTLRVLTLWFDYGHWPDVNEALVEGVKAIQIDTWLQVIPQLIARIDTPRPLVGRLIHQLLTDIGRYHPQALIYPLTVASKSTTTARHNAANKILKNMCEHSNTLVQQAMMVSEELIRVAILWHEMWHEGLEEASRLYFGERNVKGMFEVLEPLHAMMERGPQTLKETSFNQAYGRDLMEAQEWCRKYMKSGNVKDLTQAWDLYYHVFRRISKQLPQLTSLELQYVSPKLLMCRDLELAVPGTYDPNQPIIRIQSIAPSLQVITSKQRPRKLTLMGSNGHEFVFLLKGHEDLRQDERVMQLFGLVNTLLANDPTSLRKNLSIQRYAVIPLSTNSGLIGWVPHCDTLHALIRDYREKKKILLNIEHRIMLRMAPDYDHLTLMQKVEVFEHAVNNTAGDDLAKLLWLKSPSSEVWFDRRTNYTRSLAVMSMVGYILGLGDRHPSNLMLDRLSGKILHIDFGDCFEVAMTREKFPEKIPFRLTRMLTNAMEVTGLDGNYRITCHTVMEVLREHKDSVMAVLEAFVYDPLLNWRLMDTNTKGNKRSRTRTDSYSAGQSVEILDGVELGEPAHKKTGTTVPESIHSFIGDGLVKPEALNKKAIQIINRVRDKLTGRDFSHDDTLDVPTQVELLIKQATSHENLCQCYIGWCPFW
Procedure: Determination of FRAP1 (mTOR) Kinase Activity • Human FRAP1 (mTOR) recombinant protein (GST tag): Invitrogen, Cat. No. PV4753; • GFP-4E-BP1: Thermo Scientific, Cat. No. PV4759; • LanthaScreenTM Tb-p4E-BP1 ([…]) antibody: Thermo Scientific, Cat. No. PV4755; • TR-FRET dilution buffer: Thermo Scientific, Cat. No. PV3574; • ATP solution (10 mM): Thermo Scientific, Cat. No. PV3227; • HEPES (1 M): Gibco, Cat. No. 15630-106; • EDTA (0.5 M), pH 8.0, RNase-free: Invitrogen, Cat. No. A[…]; • Manganese chloride solution: Sigma-Aldrich, Cat. No. M1787; • EGTA: Sigma-Aldrich, Cat. No. E4378; • TWEEN®20: Sigma-Aldrich, Cat. No. P2287; • DTT: Sigma-Aldrich, Cat. No. DTT-RO; • 384-well plate: Corning, Cat. No. 3676; • 384-well plate: Corning, Cat. No. 4514; • Envision multi-mode plate reader: PerkinElmer; 4EBP1 is the substrate of mTOR, and when mTOR is activated, it will phosphorylate […] of the 4EBP1 protein. LanthaScreenTM kinase assay is used to detect the amount of phosphorylated substrate GFP-4E-BP1 produced in kinase activity experiments, thereby judging the mTOR kinase activity, and through the strength of the kinase activity, distinguishing the inhibitory effects of different compounds on the activity of FRAP1 (mTOR) kinase. […] Then, the 384-well plate was placed in a constant temperature incubator protected from light and incubated at room temperature for 1 hour. […] The 384-well plate was taken out and the plate was read using an Envision multi-mode plate reader (the excitation light wavelength was 320 nm and the emission light wavelengths were 495 nm and 520 nm). The inhibition rate was calculated using the formula as below: [formula]

ATM(h) = ATM(h) (Homo sapiens, UniProt Q13315); assay: ATM(h) kinase activity, HTRF (Eurofins Cerep); assay type: biochemical; details: read-out: ATM(h) (enzyme, IC50)
Chain of ATM(h) (Q13315 whole entry): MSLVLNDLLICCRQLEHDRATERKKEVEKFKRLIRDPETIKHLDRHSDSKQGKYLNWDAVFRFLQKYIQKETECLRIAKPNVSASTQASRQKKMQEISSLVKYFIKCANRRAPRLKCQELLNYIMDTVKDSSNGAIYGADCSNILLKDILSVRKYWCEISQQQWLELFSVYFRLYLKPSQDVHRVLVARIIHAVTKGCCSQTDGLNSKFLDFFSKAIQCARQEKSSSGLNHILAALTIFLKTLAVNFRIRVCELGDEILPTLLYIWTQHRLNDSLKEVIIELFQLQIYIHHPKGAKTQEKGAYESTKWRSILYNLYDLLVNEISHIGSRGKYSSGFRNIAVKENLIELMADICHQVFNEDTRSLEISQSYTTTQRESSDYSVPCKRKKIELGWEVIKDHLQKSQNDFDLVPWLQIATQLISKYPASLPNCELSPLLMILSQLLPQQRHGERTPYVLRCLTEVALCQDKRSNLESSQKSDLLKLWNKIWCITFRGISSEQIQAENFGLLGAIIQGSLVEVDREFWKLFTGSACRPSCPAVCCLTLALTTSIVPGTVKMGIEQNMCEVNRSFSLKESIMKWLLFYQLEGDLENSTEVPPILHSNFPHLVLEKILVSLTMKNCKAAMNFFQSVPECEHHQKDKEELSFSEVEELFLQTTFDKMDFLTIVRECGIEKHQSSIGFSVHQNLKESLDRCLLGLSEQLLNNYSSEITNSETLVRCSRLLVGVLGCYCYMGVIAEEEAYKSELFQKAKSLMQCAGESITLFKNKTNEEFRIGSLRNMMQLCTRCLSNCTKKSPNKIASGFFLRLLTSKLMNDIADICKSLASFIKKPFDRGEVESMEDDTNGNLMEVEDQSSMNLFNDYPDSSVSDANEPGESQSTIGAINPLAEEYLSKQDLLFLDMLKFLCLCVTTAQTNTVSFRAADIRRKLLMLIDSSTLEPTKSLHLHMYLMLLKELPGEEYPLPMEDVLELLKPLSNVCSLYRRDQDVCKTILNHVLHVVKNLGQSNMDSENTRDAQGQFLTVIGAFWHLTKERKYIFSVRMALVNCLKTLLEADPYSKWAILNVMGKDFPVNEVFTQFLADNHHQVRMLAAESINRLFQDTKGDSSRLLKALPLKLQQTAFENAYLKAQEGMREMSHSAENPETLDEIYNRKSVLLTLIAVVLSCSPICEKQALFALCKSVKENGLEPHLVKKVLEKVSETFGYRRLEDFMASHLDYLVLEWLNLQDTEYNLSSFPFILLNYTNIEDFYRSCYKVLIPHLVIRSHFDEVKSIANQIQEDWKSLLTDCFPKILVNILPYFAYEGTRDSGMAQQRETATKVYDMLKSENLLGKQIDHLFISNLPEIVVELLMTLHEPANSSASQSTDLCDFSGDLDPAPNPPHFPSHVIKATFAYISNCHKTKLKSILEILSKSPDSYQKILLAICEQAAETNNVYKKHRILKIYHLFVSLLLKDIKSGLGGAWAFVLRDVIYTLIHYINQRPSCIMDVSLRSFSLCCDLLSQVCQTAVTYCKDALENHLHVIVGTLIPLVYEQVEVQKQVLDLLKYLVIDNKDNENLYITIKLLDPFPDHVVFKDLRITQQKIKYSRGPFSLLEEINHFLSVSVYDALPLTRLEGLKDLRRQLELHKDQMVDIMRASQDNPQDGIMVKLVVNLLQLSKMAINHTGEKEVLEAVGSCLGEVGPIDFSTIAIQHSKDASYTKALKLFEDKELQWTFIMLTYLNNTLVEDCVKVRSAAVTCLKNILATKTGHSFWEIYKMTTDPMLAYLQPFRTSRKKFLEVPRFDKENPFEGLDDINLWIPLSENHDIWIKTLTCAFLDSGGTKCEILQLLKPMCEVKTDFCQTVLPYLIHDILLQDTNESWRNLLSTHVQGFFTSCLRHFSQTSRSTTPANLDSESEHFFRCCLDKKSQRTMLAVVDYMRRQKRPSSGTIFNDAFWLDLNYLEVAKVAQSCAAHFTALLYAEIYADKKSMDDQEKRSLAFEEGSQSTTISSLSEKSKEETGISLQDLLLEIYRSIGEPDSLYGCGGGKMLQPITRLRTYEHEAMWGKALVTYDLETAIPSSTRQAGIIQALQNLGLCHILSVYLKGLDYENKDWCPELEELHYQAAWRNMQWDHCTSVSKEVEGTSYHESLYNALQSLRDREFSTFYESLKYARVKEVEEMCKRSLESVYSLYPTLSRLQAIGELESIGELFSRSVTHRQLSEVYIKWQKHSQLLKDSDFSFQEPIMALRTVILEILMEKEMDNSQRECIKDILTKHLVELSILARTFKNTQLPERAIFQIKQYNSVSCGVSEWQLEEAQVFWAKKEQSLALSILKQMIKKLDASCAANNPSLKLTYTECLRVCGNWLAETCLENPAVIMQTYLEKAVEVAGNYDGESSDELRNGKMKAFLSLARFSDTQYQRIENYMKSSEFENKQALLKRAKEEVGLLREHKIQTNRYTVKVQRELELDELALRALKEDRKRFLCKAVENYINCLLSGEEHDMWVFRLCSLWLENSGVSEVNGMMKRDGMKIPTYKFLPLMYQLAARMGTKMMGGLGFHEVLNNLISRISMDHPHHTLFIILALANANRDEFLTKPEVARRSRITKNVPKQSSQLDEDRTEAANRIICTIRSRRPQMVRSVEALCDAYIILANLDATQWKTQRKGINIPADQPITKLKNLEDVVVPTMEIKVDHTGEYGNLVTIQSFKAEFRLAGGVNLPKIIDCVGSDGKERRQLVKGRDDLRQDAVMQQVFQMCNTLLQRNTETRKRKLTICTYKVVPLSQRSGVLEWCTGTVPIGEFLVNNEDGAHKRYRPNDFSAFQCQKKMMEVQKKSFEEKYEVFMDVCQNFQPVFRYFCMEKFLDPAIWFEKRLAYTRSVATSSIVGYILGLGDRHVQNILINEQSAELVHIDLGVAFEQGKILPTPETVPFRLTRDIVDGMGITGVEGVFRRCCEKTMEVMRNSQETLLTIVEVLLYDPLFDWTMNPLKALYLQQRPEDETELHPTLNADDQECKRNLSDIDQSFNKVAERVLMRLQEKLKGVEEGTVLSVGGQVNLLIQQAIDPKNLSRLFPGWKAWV
Procedure: (§5) The […], ATM(h), ATR/ATRIP(h), and DNA-PK (h) were detected by HTRFR.
(§6) The calculation formula was as follows: […]
(§7) For IC50 determination, the data were analyzed using XLFit version 5.3 (ID Business Solutions).

ATR/ATRIP(h) = biological target: T3, ATR/ATRIP(h) (Homo sapiens, UniProt Q13535); assay: ATR/ATRIP(h) kinase activity, HTRF (Eurofins Cerep); assay type: biochemical; details: read-out: ATR/ATRIP(h) (enzyme, IC50)
T3 construct: purchased Eurofins Cerep 14-953
Procedure: as §5, §6, §7

DNA-PK(h) = biological target: T4, DNA-PK(h) (Homo sapiens, UniProt P78527); assay: DNA-PK(h) kinase activity, HTRF (Eurofins Cerep); assay type: biochemical; details: read-out: DNA-PK(h) (enzyme, IC50)
T4 construct: purchased Eurofins Cerep 14-950
Procedure: as §5, §6, §7

Structure (SMILES)	IC50 (MDA-MB-453)	IC50 (MDA-MB-468)	IC50 [1]	IC50 [2]	IC50 (ATM(h))	IC50 (ATR/ATRIP(h))	IC50 (DNA-PK(h))
COc1ncc(-c2ccc3ncc4c(c3c2)n([C@H]2C[C@H](O)C2)c(=O)n4C)cc1NS(=O)(=O)N1CCNCC1 [Compound 7]	0.3 nM	0.22 nM	0.5 nM	2.7 nM	–	–	–
COc1ncc(-c2ccc3ncc4c(c3c2)n(C2COC2)c(=O)n4C)cc1NS(=O)(=O)N1CCNCC1 [Compound 16]	61.6 nM	91.4 nM	–	–	–	–	–
COc1ncc(-c2ccc3ncc4c(c3c2)C(C2CC2)N=N4)cc1NS(=O)(=O)N1CCNCC1 (stereo not drawn) [Compound 13]	1.3 nM	1.8 nM	–	–	–	–	–
COc1ncc(-c2ccc3ncc4c(c3c2)n(C2CC2)c(=O)n4C)cc1NS(=O)(=O)N1CCC2(CC1)CNC2 [Compound 15]	14.9 nM	18.4 nM	–	–	–	–	–
COc1ncc(-c2ccc3ncc4nnc(C5CCC5)n4c3c2)cc1NS(=O)(=O)N1CCNCC1 [Compound 4]	0.89 nM	0.71 nM	–	–	–	–	–
COc1ncc(-c2ccc3ncc4nnc(C5CC5)n4c3c2)cc1NS(=O)(=O)N1CCNCC1 [Compound 9]	–	1 nM	–	–	–	–	–
COc1ncc(-c2ccc3ncc4c(c3c2)n(C)c(=O)n4C)cc1NS(=O)(=O)N1CCNCC1 [Compound 6]	0.25 nM	0.32 nM	–	–	–	–	–
COc1ncc(-c2ccc3ncc4c(c3c2)n(C2CC2)c(=O)n4C)cc1NS(=O)(=O)N1CCN(C)CC1 [Compound 10]	2.3 nM	–	–	–	–	–	–
COc1ncc(-c2ccc3ncc4c(c3c2)n([C@H]2C[C@H](CO)C2)c(=O)n4C)cc1NS(=O)(=O)N1CCNCC1 [Compound 8]	0.32 nM	0.21 nM	–	–	–	–	–
COc1ncc(-c2ccc3ncc4c(c3c2)n(C2CC2)c(=O)n4C)cc1NS(=O)(=O)N1CC2CNCC2C1 (stereo not drawn) [Compound 12]	3.3 nM	7.9 nM	–	–	–	–	–
COc1ncc(-c2ccc3ncc4ncn(C5CCC5)c4c3c2)cc1NS(=O)(=O)N1CCNCC1 [Compound 17]	1.8 nM	3.4 nM	–	–	–	–	–
COc1ncc(-c2ccc3ncc4c(c3c2)n(C2CC2)c(=O)n4C)cc1NS(=O)(=O)C1CCNCC1 [Compound 14]	0.39 nM	0.41 nM	0.6 nM	11.2 nM	–	–	–
COc1ncc(-c2ccc3ncc4c(c3c2)n(C2CCC2)c(=O)n4C)cc1NS(=O)(=O)N1CCNCC1 [Compound 5]	0.064 nM	0.09 nM	1.6 nM	7.5 nM	–	–	–

Other lines, results leading:

IC50 (MDA-MB-453)	IC50 (MDA-MB-468)	IC50 [1]	IC50 [2]	IC50 (ATM(h))	IC50 (ATR/ATRIP(h))	IC50 (DNA-PK(h))	Structure (SMILES)
0.34 nM	0.2 nM	–	10.8 nM	–	–	–	COc1ncc(-c2ccc3ncc4c(c3c2)n(C2CC(F)(F)C2)c(=O)n4C)cc1NS(=O)(=O)N1CCNCC1 [Compound 25]
0.55 nM	1.4 nM	0.7 nM	3.4 nM	–	–	–	COc1ncc(-c2ccc3ncc4ncc(C5CC5)n4c3c2)cc1NS(=O)(=O)N1CCNCC1 [Compound 23]
0.24 nM	0.29 nM	–	6.4 nM	0.7 nM	17 nM	0.2 nM	COc1ncc(-c2ccc3ncc4c(c3c2)n([C@@H]2C[C@@H]2F)c(=O)n4C)cc1NS(=O)(=O)N1CCNCC1 [Compound 27]
–	1 nM	–	–	–	–	–	COc1ncc(-c2ccc3ncc4cnc(C)n4c3c2)cc1NS(=O)(=O)N1CCNCC1 [Compound 20]
0.22 nM	0.24 nM	2.8 nM	–	0.6 nM	17 nM	0.3 nM	COc1ncc(-c2ccc3ncc4c(c3c2)n(CC(F)(F)F)c(=O)n4C)cc1NS(=O)(=O)N1CCNCC1 [Compound 32]
1.8 nM	1.9 nM	–	–	–	–	–	COc1ncc(-c2ccc3ncc4c(c3c2)n([C@H]2C[C@H](CO)C2)c(=O)n4C)cc1NS(=O)(=O)N1CCN(C)CC1 [Compound 26]
0.24 nM	0.2 nM	1.8 nM	–	–	–	–	COc1ncc(-c2ccc3ncc4cnc(C5CC(F)(F)C5)n4c3c2)cc1NS(=O)(=O)N1CCNCC1 [Compound 24]
6.5 nM	9.2 nM	–	–	–	–	–	COc1ncc(-c2ccc3ncc4c(c3c2)n(C2CC2)c(=O)n4C)cc1NS(=O)(=O)N1CCN(CCO)CC1 [Compound 22]
0.24 nM	–	–	–	0.4 nM	15 nM	0.2 nM	COc1ncc(-c2ccc3ncc4c(C)nc(C5CC5)n4c3c2)cc1NS(=O)(=O)N1CCNCC1 [Compound 31]
0.22 nM	0.2 nM	–	–	–	–	–	[2H]C([2H])([2H])n1c(=O)n(C2CC2)c2c3cc(-c4cnc(OC)c(NS(=O)(=O)N5CCNCC5)c4)ccc3ncc21 [Compound 35]
0.12 nM	0.055 nM	1.4 nM	8.6 nM	–	–	–	COc1ncc(-c2ccc3ncc4c(c3c2)n(C2CCCC2)c(=O)n4C)cc1NS(=O)(=O)N1CCNCC1 [Compound 19]
7.9 nM	6 nM	–	–	–	–	–	COc1ncc(-c2ccc3ncc4nnc(C5CC5)n4c3c2)cc1NS(=O)(=O)N1CCN(C)CC1 [Reference compound 1, reference compound]
2.3 nM	3 nM	–	–	–	–	–	COc1ncc(-c2ccc3ncc4c(c3c2)n(C2CC2)c(=O)n4CC(F)(F)F)cc1NS(=O)(=O)N1CCNCC1 [Compound 33]
6.6 nM	4.9 nM	–	–	–	–	–	COc1ncc(-c2ccc3ncc4nccn4c3c2)cc1NS(=O)(=O)N1CCNCC1 [Compound 21]
–	0.24 nM	0.6 nM	2.8 nM	0.6 nM	13 nM	0.3 nM	COc1ncc(-c2ccc3ncc4c(c3n2)n(C2CC2)c(=O)n4C)cc1NS(=O)(=O)N1CCNCC1 [Compound 28]
–	0.091 nM	2.1 nM	6.2 nM	–	–	–	COc1ncc(-c2ccc3ncc4cnc(C5CCC5)n4c3c2)cc1NS(=O)(=O)N1CCNCC1 [Compound 18]
2.8 nM	3.4 nM	–	–	–	–	–	Cn1c(=O)n(C2CC2)c2c3cc(-c4cnc(OCC(F)(F)F)c(NS(=O)(=O)N5CCNCC5)c4)ccc3ncc21 [Compound 34]
